# Reference: article PMC6400998, “Soy Isoflavone Extract Does Not Increase the Intoxicating Effects of Acute Alcohol Ingestion in Human Volunteers” (Frontiers in Pharmacology, 2019)
# Key:
# healthy male volunteers [1] = test: Physiological effects (vital signs: SBP, DBP, HR, oral and cutaneous facial temperature) after alcohol with or without soy extract; conditions: difference with respect to baseline; for FT Emax: cutaneous facial temperature
# Description: (§1) The study was a randomized, single-blinded (the participants were informed that they could receive different doses of alcohol in the two sessions), and crossover clinical trial. Subjects participated in two different experimental sessions separated by at least 3 days. In one session they received a glass of water (240 mL) and 2 h later a single oral dose of alcohol was administered (0.5 g/kg, Vodka Absolut® 40°, Sweden); in the other, they were given four capsules containing a soy extract product with a glass of water (240 mL) and 2 h later the same dose of alcohol.
# Non-invasive systolic blood pressure (SBP), diastolic blood pressure (DBP), heart rate (HR), oral and cutaneous facial temperature (OT, FT) were repeatedly recorded at baseline, immediately before capsule administration, and at 2 (immediately before beverage administration), 2.5, 3, 4, 5, 6, 8, and 10 h after first administration. All assessments were carried out with a DinamapTM 8100-T vital signs monitor (Critikon, Tampa, FL, United States). Cutaneous facial temperature was measured at the same time with an additional monitor (Critikon, Tampa, FL, United States).
# (§2) Differences with respect to baseline were calculated for vital signs (SBP, DBP, HR, and OT-FT) and subjective effects (VAS, ARCI). Maximum/peak effects (Emax) and the time to reach maximum effects (tmax) were also determined for the previously mentioned variables. The area under the curve of the concentrations from 0 to 10 h (AUC0-10 h) using the trapezoidal rule was calculated for vital signs and subjective effects.
# (§3) For the statistical comparison of AUC and Emax a Student’s t-test for paired samples was employed. For tmax a non-parametric Wilcoxon test was used. A repeated measure ANOVA with two factors (treatment and time) was used to compare the time course of effects. When treatment or the treatment × time interaction was statistically significant, multiple Tukey post hoc comparisons were performed at each time point.
# healthy male volunteers [2] = test: Subjective and adverse effects by visual analog scales (VAS, 100 mm)
# Description: as §1
# Subjective effects were evaluated using a set of visual analog scales (VAS) at baseline (0 h), 2, 2.25, 2.5, 2.75, 3, 3.5, 4, 5, 6, 8, and 10 h after first administration. VAS (100 mm) were labeled with different adjectives marked at opposite ends from “not at all” to “extremely” ([Peiró et al., 2013]; [Farré et al., 2015]; [Papaseit et al., 2016]). Subjects were asked to rate effects of drunkenness, content, nausea, vertigo, dizziness, feeling of face flushing, headache, and breathing difficulty.
# as §2, §3
# healthy male volunteers [3] = test: Addiction Research Center Inventory (ARCI) 49-item short form questionnaire; type: in vivo, human; conditions: n = 10
# [4] = Pharmacokinetics of alcohol (ethanol) in plasma
# Description: as §1
# Blood samples and ethanol breath concentrations were collected at baseline (before soy extract administration), and at 2 (before ethanol administration), 2.25, 2.5, 2.75, 3, 4, 5, 6, 7, 8, 10, and 24 h after soy extract administration. Ethanol was determined in blood (DRI® Ethyl Alcohol Assay, Thermo Fisher, Fremont, CA, United States) and breath (Alcotest, Dräger, Germany). Daidzein, genistein, and the endogenous metabolite equol were determined by liquid chromatography coupled to tandem mass spectrometry (LC/MS/MS) using a validated method ([Rodríguez-Morató et al., 2015]).
# Peak concentration (Cmax), time to reach peak concentrations (Tmax), and area under the concentration-time curve from 0 to 10 h (AUC0-10) from ethanol plasma concentrations over time were determined using Pharmacokinetic Functions for Microsoft Excel (Joel Usansky, Atul Desai, and Diane Tang-Liu, Department of Pharmacokinetics and Drug Metabolism, Allergan, Irvine, CA, United States).
# [5] = Plasma concentrations of daidzein, genistein and equol after soy extract (LC/MS/MS); conditions: for Tmax / Cmax: human
# Description: as §1
# A commercial soy extract product (Super-Absorbable Soy Isoflavones®, hard gelatin capsules, Life-Extension, United States) was employed. According to the manufacturer each capsule contained 54 mg of total isoflavones (22 mg daidzin-daidzein, 28 mg genistin-genistein, and 4 mg glycitin-glycitein).
# Ethanol was determined in blood (DRI® Ethyl Alcohol Assay, Thermo Fisher, Fremont, CA, United States) and breath (Alcotest, Dräger, Germany).
# male mice = system: male mice; set-up: method as in Martin et al., 2013; conditions: ref Martin et al., 2013; cited from earlier work
# [6] = difference with respect to baseline, AUC 0-10 h, n = 10
# [7] = difference with respect to baseline, peak effect, n = 10
# [8] = alcohol 0.5 g/kg oral, 2 h after soy extract (four capsules) or water, Mean ± SD, n = 10
smiles,measurement,setting,value
"CCO [Alcohol, ethanol]",FT Emax,"healthy male volunteers [1]; peak effect, n = 10",1.59 ± 0.67 °C
same,FT Emax,"healthy male volunteers [1]; peak effect, n = 10, listed as alcohol",1.59 °C
same,DBP Emax,"healthy male volunteers [1]; diastolic blood pressure, peak effect, n = 10",–10.5 ± 8.72 mmHg
same,HR Emax,"healthy male volunteers [1]; heart rate, peak effect, n = 10",–1.2 ± 15.26 beats/min
same,OT Emax,"healthy male volunteers [1]; oral temperature, peak effect, n = 10",–0.23 ± 0.47
same,SBP Emax,"healthy male volunteers [1]; systolic blood pressure, peak effect, n = 10",–9.2 ± 11.05 mmHg
same,reduction of DBP at 2 h,"healthy male volunteers [1]; time course, 2 h after first administration, p < 0.05",-2.89
same,reduction of DBP at 3 h,"healthy male volunteers [1]; time course, 3 h after first administration, p < 0.05",-4.5
same,reduction of DBP at 4 h,"healthy male volunteers [1]; time course, 4 h after first administration, p < 0.01",-9.67
same,reduction of DBP at 8 h,"healthy male volunteers [1]; time course, 8 h after first administration, p < 0.05",-4.78
same,VAS score for headache at 8 h,"healthy male volunteers [2]; 8 h after first administration, p < 0.01",16 mm
same,VAS Content AUC0-10,healthy male volunteers [2]; [6],29.91 ± 47.07
same,VAS Drunkenness AUC0-10,healthy male volunteers [2]; [6],25.387 ± 35.1
same,VAS Breathing difficulty Emax,healthy male volunteers [2]; [7],0 mm
same,VAS Content Emax,healthy male volunteers [2]; [7],23.9 ± 26.2 mm
same,VAS Dizziness Emax,healthy male volunteers [2]; [7],10.9 ± 18.3 mm
same,VAS Drunkenness Emax,healthy male volunteers [2]; [7],20.8 ± 19.1 mm
same,VAS Face flushing Emax,healthy male volunteers [2]; [7],9.6 ± 14.9 mm
same,VAS Headache Emax,healthy male volunteers [2]; [7],16.2 ± 27.9 mm
same,VAS Nausea Emax,healthy male volunteers [2]; [7],0.8 ± 1.75 mm
same,VAS Vertigo Emax,healthy male volunteers [2]; [7],2.2 ± 6.9 mm
same,ARCI-MBG AUC0-10,"healthy male volunteers [3]; euphoria subscale, AUC 0-10 h",3.4 ± 3.2
same,ARCI-MBG Emax,"healthy male volunteers [3]; euphoria subscale, difference with respect to baseline, peak effect",2.7 ± 3.3
same,ARCI-LSD Emax,"healthy male volunteers [3]; first ARCI-LSD line of Table 1 (r36), dysphoria and somatic symptoms subscale, peak effect",5.2 ± 1.7
same,ARCI-LSD AUC0-10,"healthy male volunteers [3]; first ARCI-LSD line of Table 1 (r37), AUC 0-10 h",43.2 ± 8.27
same,ARCI-BG ARCI-A Emax,"healthy male volunteers [3]; line printed ARCI-BG ARCI-A (r40), peak effect",1.8 ± 1.686
same,ARCI-BG ARCI-A AUC0-10,"healthy male volunteers [3]; line printed ARCI-BG ARCI-A (r41), AUC 0-10 h",4.5 ± 4.47
same,ARCI-LSD Emax,"healthy male volunteers [3]; second line printed ARCI-LSD in Table 1 (r38), peak effect",4.6 ± 1.07
same,ARCI-LSD AUC0-10,"healthy male volunteers [3]; second line printed ARCI-LSD in Table 1 (r39), AUC 0-10 h",36.7 ± 5.5
same,ARCI-PCAG AUC0-10,"healthy male volunteers [3]; sedation subscale, AUC 0-10 h",14.05 ± 14.2
same,ARCI-PCAG Emax,"healthy male volunteers [3]; sedation subscale, difference with respect to baseline, peak effect",3.4 ± 3.59
same,alcohol concentrations in plasma 10 h after drug administration,[4]; 10 h after drug administration,undetectable
same,AUC0-10 of alcohol in plasma,[4]; [8],219.67 ± 27.2 ng/mL/h
same,Cmax of alcohol in plasma,[4]; [8],77 ± 22.25 ng/mL
O=c1c(-c2ccc(O)cc2)coc2cc(O)ccc12 [daidzein],time of peak plasma concentration,"[5]; after four capsules of soy extract, oral, n = 10",around 6 h
same,Tmax,"[5]; plasma, oral, 4 capsules, Tmax for the first peak, first of double peaks in plasma after soy extract",2 to 4 h
same,Cmax,"[5]; plasma, po, 4 capsules",1020 ng/mL
same,Tmax,"[5]; plasma, po, 4 capsules, time of peak plasma concentration, after four capsules of soy extract, oral, n = 10",6.1 h
same,cocaine-reinforcing effects,male mice,decreased
same,cue-induced cocaine relapse,male mice,reduced
Oc1ccc([C@H]2COc3cc(O)ccc3C2)cc1 [equol],Tmax,"[5]; in vivo, po, time of peak plasma concentration",24 h
O=c1c(-c2ccc(O)cc2)coc2cc(O)cc(O)c12 [genistein],Tmax,"[5]; in vivo, 4 capsules, Tmax for the first peak, first of double peaks in plasma after soy extract",2 to 4 h
same,Cmax,"[5]; in vivo, po, 4 capsules",1040 ng/mL
same,Tmax,"[5]; in vivo, po, 4 capsules, time of peak plasma concentration, after four capsules of soy extract, oral, n = 10",7.3 h
same,cocaine-reinforcing effects,male mice,decreased
same,cue-induced cocaine relapse,male mice,not
